# Values of other authors as cited in US9615750B2, “Methods and compositions for carrier agents and clearing agents used in optoacoustic imaging systems” (SENO MEDICAL INSTRUMENTS, INC., priority 2012, dated 2017).
# Conditions: for Solubility: in words, solvents as named
Compound,Solubility,Solubility in water
Polyoxyethylene (20) sorbitan [TWEEN ® 20],Insoluble in Mineral Oil.,
NC(N)=O [Urea],,> 100 g/100 ml)
CN1CCCN(C)C1=O [Cyclic Urea],Soluble in water,
Keratan Sulfate,Water Soluble,
Chondroitin Sulfate,Water Soluble,
Heparin [reference compound],Water Soluble,
OCc1ccccc1 [Benzyl alcohol],,soluble 4 g/100 ml
